Peptide text beside a SMILES is read from it. * marks the point of attachment. X2 = OC[C@H]1O[C@@H](n2cnc3c(N*)ncnc32)[C@@H](O)[C@@H]1O
What follows are compounds tested against Dipeptidyl peptidase 4 (Homo sapiens) (UniProt P27487) (assay: Ratio of Vmax/Km for human recombinant CD26 assessed as hydrolysis).
Dipeptidyl peptidase 4 (Homo sapiens), sequence (P27487 whole entry, looked up): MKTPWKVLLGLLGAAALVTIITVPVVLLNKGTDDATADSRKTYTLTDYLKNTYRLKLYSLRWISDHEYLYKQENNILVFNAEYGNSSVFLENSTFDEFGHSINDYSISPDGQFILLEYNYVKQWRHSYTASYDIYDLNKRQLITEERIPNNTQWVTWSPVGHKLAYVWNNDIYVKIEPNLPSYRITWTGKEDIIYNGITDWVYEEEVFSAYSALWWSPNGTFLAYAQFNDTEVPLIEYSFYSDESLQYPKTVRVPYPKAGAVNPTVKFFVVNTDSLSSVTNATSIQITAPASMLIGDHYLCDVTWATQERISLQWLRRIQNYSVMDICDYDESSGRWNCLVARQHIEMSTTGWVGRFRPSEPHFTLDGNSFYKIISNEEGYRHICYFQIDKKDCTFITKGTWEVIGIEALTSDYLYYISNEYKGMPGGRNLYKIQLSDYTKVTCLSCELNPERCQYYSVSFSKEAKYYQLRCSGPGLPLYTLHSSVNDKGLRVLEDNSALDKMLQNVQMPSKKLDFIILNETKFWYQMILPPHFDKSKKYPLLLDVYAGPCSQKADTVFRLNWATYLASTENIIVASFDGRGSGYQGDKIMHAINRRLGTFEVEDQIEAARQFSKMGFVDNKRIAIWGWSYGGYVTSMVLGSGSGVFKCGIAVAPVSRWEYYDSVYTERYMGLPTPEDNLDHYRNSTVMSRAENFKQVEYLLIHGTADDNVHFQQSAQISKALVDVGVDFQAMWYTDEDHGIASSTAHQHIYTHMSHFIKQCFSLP

SMILES | Vmax/Km
COc1cccc2c1C(=O)c1c(O)c3c(c(O)c1C2=O)C[C@@](O)(C(=O)CO)C[C@@H]3O[C@H]1C[C@H](NC(=O)[C@@H]2CCCN2C(=O)[C@@H](N)C(C)C)[C@H](O)[C@H](C)O1 | 0.5
CC(C)[C@H](N)C(=O)N1CCC[C@H]1C(=O)Nc1ccc2ncccc2c1 | 1.3
N[C@@H](CC(=O)O)C(=O)N1CCC[C@H]1C(=O)Nc1ccc2ncccc2c1 | 0.13
CC(C)[C@H](N)C(=O)N1CCC[C@H]1C(=O)N[C@H](C(=O)N1CCC[C@H]1C(=O)Nc1ncnc2c1ncn2[C@@H]1O[C@H](CO)[C@@H](O)[C@@H]1O)C(C)C (H-VPVP-X2) | 0.18

— ChEMBL document CHEMBL1156792, “Application of the dipeptidyl peptidase IV (DPPIV/CD26) based prodrug approach to different amine-containing drugs” (J Med Chem, 2010)
